Measurements taken from the supplement of paper PMC13207355.
Structures can show the parent of a compound that is named as a salt.

How the values were obtained:
Conditions in all cases: exposure time: 72 h
E21 [1] = patient-derived glioblastoma stem cells of mesenchymal subtype; experiment: surviving fraction (nuclei count normalised to DMSO); higher = more cells surviving (less toxic)
FT3469 [2] = normal neural stem cell line; experiment: as above
E57 [3] = patient-derived glioblastoma stem cells of mesenchymal subtype; experiment: as above
E13 [4] = patient-derived glioblastoma stem cells of classical subtype; experiment: as above
E31 [5] = patient-derived glioblastoma stem cells of proneural subtype; experiment: as above
E34 [6] = patient-derived glioblastoma stem cells of proneural subtype; experiment: as above
E28 [7] = patient-derived glioblastoma stem cells of classical subtype; experiment: as above
E21 [8] = experiment: phenotypic distance (Euclidean, principal components) from DMSO controls (arbitrary units); higher = stronger morphological change
FT3469 [9] = experiment: as above
E57 [10] = experiment: as above
E13 [11] = experiment: as above
E31 [12] = experiment: as above
E34 [13] = experiment: as above
E28 [14] = experiment: as above
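Wherever phenotypic distance (Euclidean, principal components) from DMSO controls is given: cell Painting imaging in 384-well plates, CellProfiler features reduced to at least 20 principal components, Euclidean distance versus same-plate DMSO vehicle wells (0.1% v/v), median over six images per well.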
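Wherever surviving fraction (nuclei count normalised to DMSO) is given: nuclei counted by high-content imaging of Hoechst-stained cells in laminin-coated 384-well plates, relative to 0.1% DMSO vehicle wells, with staurosporine as cell-death control.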

CC(C)C[C@H](NC(=O)[C@H](Cc1ccccc1)NC(=O)c1cnccn1)B(O)O [Bortezomib]
Conditions	phenotypic distance	surviving fraction
E13 [4], 4.11523 nM	–	0.00185
E13 [4], 12.34567901 nM	–	0.551
E13 [4], 37.037 nM	–	0.000925
E13 [4], 111.1111111 nM	–	0.0074
E13 [4], 333.333 nM	–	0.000925
E13 [4], 1000 nM	–	0.00185
E13 [4], 3000 nM	–	0
E13 [11], 4.11523 nM	16.9	–
E13 [11], 12.34567901 nM	2.3	–
E13 [11], 37.037 nM	17.1	–
E13 [11], 111.1111111 nM	12	–
E13 [11], 333.333 nM	14.2	–
E13 [11], 1000 nM	13.5	–
E13 [11], 3000 nM	21.9	–
E21 [1], 4.11523 nM	–	0.00595
E21 [1], 12.34567901 nM	–	0.00198
E21 [1], 37.037 nM	–	0.000991
E21 [1], 111.1111111 nM	–	0.000991
E21 [1], 333.333 nM	–	0.00297
E21 [1], 1000 nM	–	0.00198
E21 [1], 3000 nM	–	0
E21 [8], 4.11523 nM	10.7	–
E21 [8], 12.34567901 nM	17.6	–
E21 [8], 37.037 nM	18.1	–
E21 [8], 111.1111111 nM	23.9	–
E21 [8], 333.333 nM	14.3	–
E21 [8], 1000 nM	18.7	–
E21 [8], 3000 nM	23.7	–
E28 [7], 4.11523 nM	–	0.0619
E28 [7], 12.34567901 nM	–	0.0854
E28 [7], 37.037 nM	–	0.0576
E28 [7], 111.1111111 nM	–	0.0896
E28 [7], 333.333 nM	–	0.0747
E28 [7], 1000 nM	–	0.0576
E28 [7], 3000 nM	–	0.105
E28 [14], 4.11523 nM	5.69	–
E28 [14], 12.34567901 nM	4.88	–
E28 [14], 37.037 nM	6.77	–
E28 [14], 111.1111111 nM	5.66	–
E28 [14], 333.333 nM	5.33	–
E28 [14], 1000 nM	6.17	–
E28 [14], 3000 nM	5.47	–
E31 [5], 4.11523 nM	–	0.00325
E31 [5], 12.34567901 nM	–	0.0114
E31 [5], 37.037 nM	–	0.00651
E31 [5], 111.1111111 nM	–	0
E31 [5], 333.333 nM	–	0.00163
E31 [5], 1000 nM	–	0
E31 [5], 3000 nM	–	0.00163
E31 [12], 4.11523 nM	8.53	–
E31 [12], 12.34567901 nM	10.1	–
E31 [12], 37.037 nM	10.2	–
E31 [12], 111.1111111 nM	21.4	–
E31 [12], 333.333 nM	11.7	–
E31 [12], 1000 nM	17.1	–
E31 [12], 3000 nM	12.6	–
E34 [6], 4.11523 nM	–	0.0594
E34 [6], 12.34567901 nM	–	0.0507
E34 [6], 37.037 nM	–	0.0385
E34 [6], 111.1111111 nM	–	0.0332
E34 [6], 333.333 nM	–	0.035
E34 [6], 1000 nM	–	0.0227
E34 [6], 3000 nM	–	0.0385
E34 [13], 4.11523 nM	10.2	–
E34 [13], 12.34567901 nM	9.58	–
E34 [13], 37.037 nM	13.4	–
E34 [13], 111.1111111 nM	13.5	–
E34 [13], 333.333 nM	13.9	–
E34 [13], 1000 nM	12.6	–
E34 [13], 3000 nM	12.6	–
E57 [3], 4.11523 nM	–	0.00967
E57 [3], 12.34567901 nM	–	0.00153
E57 [3], 37.037 nM	–	0.00662
E57 [3], 111.1111111 nM	–	0.00611
E57 [3], 333.333 nM	–	0.00255
E57 [3], 1000 nM	–	0.00305
E57 [3], 3000 nM	–	0.00611
E57 [10], 4.11523 nM	10.4	–
E57 [10], 12.34567901 nM	15.6	–
E57 [10], 37.037 nM	11.2	–
E57 [10], 111.1111111 nM	10.8	–
E57 [10], 333.333 nM	12.5	–
E57 [10], 1000 nM	12.2	–
E57 [10], 3000 nM	9.88	–
FT3469 [2], 4.11523 nM	–	0.207
FT3469 [2], 12.34567901 nM	–	0.193
FT3469 [2], 37.037 nM	–	0.233
FT3469 [2], 111.1111111 nM	–	0.161
FT3469 [2], 333.333 nM	–	0.158
FT3469 [2], 1000 nM	–	0.121
FT3469 [2], 3000 nM	–	0.104
FT3469 [9], 4.11523 nM	5.9	–
FT3469 [9], 12.34567901 nM	7.61	–
FT3469 [9], 37.037 nM	8.16	–
FT3469 [9], 111.1111111 nM	8	–
FT3469 [9], 333.333 nM	7.22	–
FT3469 [9], 1000 nM	8.26	–
FT3469 [9], 3000 nM	6	–

OCCN1CCN(CCCN2c3ccccc3Sc3ccc(C(F)(F)F)cc32)CC1 [Fluphenazine dihydrochloride]
Conditions	phenotypic distance	surviving fraction
E13 [4], 4.1 nM	–	0.959
E13 [4], 12.3 nM	–	1.02
E13 [4], 37 nM	–	1
E13 [4], 111.1 nM	–	1
E13 [4], 333.3 nM	–	0.966
E13 [4], 1000 nM	–	0.816
E13 [4], 3000 nM	–	0.804
E13 [11], 4.1 nM	0.431	–
E13 [11], 12.3 nM	0.337	–
E13 [11], 37 nM	0.907	–
E13 [11], 111.1 nM	0.69	–
E13 [11], 333.3 nM	1.57	–
E13 [11], 1000 nM	1.8	–
E13 [11], 3000 nM	2.01	–
E21 [1], 4.1 nM	–	0.932
E21 [1], 12.3 nM	–	0.986
E21 [1], 37 nM	–	1.08
E21 [1], 111.1 nM	–	0.96
E21 [1], 333.3 nM	–	1.01
E21 [1], 1000 nM	–	0.989
E21 [1], 3000 nM	–	0.938
E21 [8], 4.1 nM	0.339	–
E21 [8], 12.3 nM	0.421	–
E21 [8], 37 nM	0.601	–
E21 [8], 111.1 nM	0.795	–
E21 [8], 333.3 nM	0.745	–
E21 [8], 1000 nM	0.728	–
E21 [8], 3000 nM	1.26	–
E28 [7], 4.1 nM	–	1.13
E28 [7], 12.3 nM	–	0.846
E28 [7], 37 nM	–	1.1
E28 [7], 111.1 nM	–	1.04
E28 [7], 333.3 nM	–	0.899
E28 [7], 1000 nM	–	0.923
E28 [7], 3000 nM	–	1.05
E28 [14], 4.1 nM	0.832	–
E28 [14], 12.3 nM	0.622	–
E28 [14], 37 nM	0.706	–
E28 [14], 111.1 nM	0.624	–
E28 [14], 333.3 nM	0.662	–
E28 [14], 1000 nM	0.755	–
E28 [14], 3000 nM	0.877	–
E31 [5], 4.1 nM	–	1.01
E31 [5], 12.3 nM	–	1.18
E31 [5], 37 nM	–	1.02
E31 [5], 111.1 nM	–	0.932
E31 [5], 333.3 nM	–	1.09
E31 [5], 1000 nM	–	1.22
E31 [5], 3000 nM	–	1.13
E31 [12], 4.1 nM	0.66	–
E31 [12], 12.3 nM	0.671	–
E31 [12], 37 nM	0.803	–
E31 [12], 111.1 nM	1.17	–
E31 [12], 333.3 nM	1.95	–
E31 [12], 1000 nM	2.4	–
E31 [12], 3000 nM	2.16	–
E34 [6], 4.1 nM	–	0.901
E34 [6], 12.3 nM	–	0.986
E34 [6], 37 nM	–	0.911
E34 [6], 111.1 nM	–	0.993
E34 [6], 333.3 nM	–	1.2
E34 [6], 1000 nM	–	1.05
E34 [6], 3000 nM	–	1.06
E34 [13], 4.1 nM	0.947	–
E34 [13], 12.3 nM	0.375	–
E34 [13], 37 nM	0.734	–
E34 [13], 111.1 nM	0.93	–
E34 [13], 333.3 nM	1.15	–
E34 [13], 1000 nM	0.764	–
E34 [13], 3000 nM	1.17	–
E57 [3], 4.1 nM	–	1.02
E57 [3], 12.3 nM	–	1.03
E57 [3], 37 nM	–	1.03
E57 [3], 111.1 nM	–	1
E57 [3], 333.3 nM	–	1.12
E57 [3], 1000 nM	–	1.02
E57 [3], 3000 nM	–	1.15
E57 [10], 4.1 nM	0.619	–
E57 [10], 12.3 nM	0.504	–
E57 [10], 37 nM	0.711	–
E57 [10], 111.1 nM	0.787	–
E57 [10], 333.3 nM	0.901	–
E57 [10], 1000 nM	0.778	–
E57 [10], 3000 nM	1.6	–
FT3469 [2], 4.1 nM	–	0.838
FT3469 [2], 12.3 nM	–	1.09
FT3469 [2], 37 nM	–	0.931
FT3469 [2], 111.1 nM	–	1
FT3469 [2], 333.3 nM	–	1.04
FT3469 [2], 1000 nM	–	0.894
FT3469 [2], 3000 nM	–	0.84
FT3469 [9], 4.1 nM	0.785	–
FT3469 [9], 12.3 nM	0.668	–
FT3469 [9], 37 nM	0.632	–
FT3469 [9], 111.1 nM	0.808	–
FT3469 [9], 333.3 nM	0.87	–
FT3469 [9], 1000 nM	1.41	–
FT3469 [9], 3000 nM	1.36	–
